In US20050020593A1, “Aryl-heteroaromatic compounds, compositions comprising them and use” (Aventis Pharma, priority 2003, published 2005) one finds IC50 and melting point data, which are given here for ten molecules.

One data set has as its target T1, Tubulin (Sus scrofa, UniProt P02550+P02554).
T1 construct: Tubulin is purified from pig brains according to published methods; from tissue; host or cells: pig brain
In words: Assessment of the inhibition of tubulin polymerization (turbidimetry at 350 nm). In kind it is biochemical. Particulars: tubulin purified from pig brains, 10 μM; concentration inhibiting the rate of polymerization by 50%. Here is the method:
Tubulin is purified from pig brains according to published methods (Shelanski et al., 1973, Proc. Natl. Acad. Sci. USA, 70, 765-768, Weingarten et al., 1975, Proc. Natl. Acad. Sci. USA, 72, 1858-1862). Briefly, the brains are ground and centrifuged in an extraction buffer. The tubulin, present in the extract supernatant, is subjected to two successive cycles of polymerization at 37° C. and depolymerization at 4° C., before being separated from the MAPS (microtubule associated proteins) by chromatography on a phosphocellulose P11 column (Whatman). The tubulin thus isolated is more than 95% pure. It is stored in a buffer known as RB/2 30% glycerol, the composition of which is 50 mM MES-NaOH [2-(N-morpholino)ethanesulfonic acid], pH 6.8; 0.25 mM MgCl2; 0.5 mM EGTA; 30% (v/v) glycerol, 0.2 mM GTP (guanosine 5′-triphosphate).
The polymerization of the tubulin into microtubules is monitored by turbidimetry as follows: the tubulin is adjusted to a concentration of 10 μM (1 mg/ml) in the RB/2 30% glycerol buffer, to which are added 1 mM GTP and 6 mM MgCl2. The polymerization is initiated by increasing the temperature from 6° C. to 37° C. in a cuvette with 1 cm optical path length, placed in a Uvikon 931 spectrophotometer (Kontron) equipped with a thermostatically-regulated cuvette holder. The increase in turbidity of the solution is followed at 350 nm.
The products are dissolved at 10 mM in DMSO and added at variable concentrations (0.5 to 10 μM) to the tubulin solution before polymerization. The IC50 value is defined as the concentration of product which inhibits the rate of polymerization by 50%. A product with an IC50 value of less than or equal to […] is considered to be very active.

The subject of the next data set is HCT116 cells. In words: Inhibition of proliferation of the human colon tumor line HCT116 ([14C]thymidine incorporation). In kind it is cell-based. Particulars: HCT-116, 48 hours at 37° C. Here is the method:
Assay for Determining the Inhibition of Proliferation of the Human Colon Tumor Line HCT116
The proliferation of HCT116 cells is evaluated by measuring the incorporation of [^14C]thymidine in the following way. The HCT116 cells (from ATCC) are cultured in a DMEM medium (Gibco) which contains 10% foetal calf serum and antibiotics (1% penicillin, 1% streptomycin). To carry out the proliferation assay, the cells are seeded into 96-well Cytostar microplates (Amersham), at a rate of 5000 cells per well. The [^14C]thymidine (0.1 μCi/well) and the products to be evaluated are then added. Variable concentrations of products up to 10 μM are used; the DMSO (solvent used to dissolve the products) should not exceed 0.5% in the medium. 48 hours after incubation at 37° C., the radioactivity incorporated into the cells is measured by counting the plates in a Tri-Lux counter (Wallac). The IC50 value is defined as the concentration of product which reduces the radioactivity by 50% compared with an untreated control. A product with an IC50 value of less than 10 μM is considered to be cytotoxic.
For orientation: Uptake of a labelled nucleoside into DNA is a usual measure of proliferation.

The term IC50 denotes the concentration needed to halve the response being measured. Read a high IC50 as weaker potency. The melting point is the temperature, or range, at which the solid turns liquid.

T1 sequence (P02550 whole entry): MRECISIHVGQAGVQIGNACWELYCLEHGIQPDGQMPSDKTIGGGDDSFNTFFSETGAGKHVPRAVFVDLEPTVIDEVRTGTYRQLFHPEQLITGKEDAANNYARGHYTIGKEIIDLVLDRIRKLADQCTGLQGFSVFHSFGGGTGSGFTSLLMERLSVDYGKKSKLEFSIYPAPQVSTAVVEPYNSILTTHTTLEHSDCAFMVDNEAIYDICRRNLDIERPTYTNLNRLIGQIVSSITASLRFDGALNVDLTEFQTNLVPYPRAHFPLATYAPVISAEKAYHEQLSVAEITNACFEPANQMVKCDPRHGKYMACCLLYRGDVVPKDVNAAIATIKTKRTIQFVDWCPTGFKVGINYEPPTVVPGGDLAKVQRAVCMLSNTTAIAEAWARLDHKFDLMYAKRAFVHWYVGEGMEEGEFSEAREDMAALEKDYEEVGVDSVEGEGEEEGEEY
T1 sequence (P02554 whole entry): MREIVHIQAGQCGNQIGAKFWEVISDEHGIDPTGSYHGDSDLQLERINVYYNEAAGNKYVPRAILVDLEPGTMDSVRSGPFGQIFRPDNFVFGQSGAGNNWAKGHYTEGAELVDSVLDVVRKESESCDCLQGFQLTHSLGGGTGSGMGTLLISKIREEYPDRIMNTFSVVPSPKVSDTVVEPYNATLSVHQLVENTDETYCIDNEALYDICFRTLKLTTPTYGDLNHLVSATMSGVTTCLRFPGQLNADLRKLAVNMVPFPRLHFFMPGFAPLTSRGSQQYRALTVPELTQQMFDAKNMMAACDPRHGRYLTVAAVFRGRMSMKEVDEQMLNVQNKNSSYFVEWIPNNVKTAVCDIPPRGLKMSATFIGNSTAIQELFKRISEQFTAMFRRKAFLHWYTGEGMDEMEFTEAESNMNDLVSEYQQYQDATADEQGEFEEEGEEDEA

Regarding `O=C(C1=Nc2ccc(Cl)cc2C1c1ccccc1)N1CCN(c2cccc(Cl)c2)CC1` (stereo not drawn) [Example 11, [4-(3-chlorophenyl)piperazin-1-yl](5-chloro-3-phenyl-1H-indol-2-yl)methanone], the melting point was found to be 188 °C. Besides, the IC50 at Tubulin came to 0.8 µM. For the molecule `COc1cc(OC)cc(N2CCN(C(=O)c3cc4n(c3-c3ccccc3)CSC4)CC2)c1` [Example 14, [4-(3,5-dimethoxyphenyl)piperazin-1-yl](5-phenyl-1H-pyrrolo-[1,2-c]thiazol-6-yl)methanone], the melting point turned out to be 98 °C. On to `O=C(c1c2ccccc2nn1-c1ccccc1)N1CCN(c2cccc(Cl)c2)CC1` [Example 2], for which the results for the IC50 against Tubulin and in the data set with HCT116 cells were 0.8 µM and 0.006 µM, respectively. Molecule `COc1ccc2c(c1)cc(C(=O)N1CCN(c3cccc(Cl)c3)CC1)n2-c1ccccc1` [Example 10, [4-(3-chlorophenyl)piperazin-1-yl](5-methoxy-1-phenyl-1H-indol-2-yl)methanone] yielded a melting point of 125 °C. The molecule further gave an IC50 against Tubulin of 2.6 µM. In the case of `COc1cc(OC)cc(N2CCN(C(=O)c3cc4ccccc4n3-c3ccccc3)CC2)c1` [Example 8, [4-(3,5-dimethoxyphenyl)piperazin-1-yl](1-phenyl-1H-indol-2-yl)methanone], the melting point turned out to be 146 °C. Moreover, half-maximal inhibition on Tubulin (IC50) was put at 1.1 µM.

`COc1cc(OC)cc(N2CCN(C(=O)c3c4ccccc4nn3-c3ccccc3)CC2)c1` [Example 3]: the IC50 amounted to 0.5 µM against Tubulin and 0.0098 µM in the data set with HCT116 cells.

With `O=C(c1cc2ccccc2n1-c1ccccc1)N1CCN(c2cccc(Cl)c2)CC1` [Example 1, [4-(3-chlorophenyl)piperazin-1-yl](1-phenyl-1H-indol-2-yl)methanone], the IC50 on Tubulin was 0.8 µM; with HCT116 cells it was 0.076 µM. The corresponding values for `O=C(c1c(-c2ccccc2)sc2ccccc12)N1CCN(c2cccc(Cl)c2)CC1` [Example 4, [4-(3-chlorophenyl)piperazin-1-yl](2-phenylbenzo[b]thiophen-3-yl)methanone] are 1.1 µM and 0.99 µM. In the case of `NC(=O)c1cccc(N2CCN(C(=O)c3cc4ccccc4n3-c3ccccc3)CC2)c1` [Example 7, [4-(3-carboxamidophenyl)piperazin-1-yl](1-phenyl-1H-indol-2-yl)methanone], on Tubulin, the IC50 turned out to be 0.9 µM. The molecule `COc1cc(OC)cc(N2CCN(C(=O)c3cc4cc(OC)ccc4n3-c3ccccc3)CC2)c1` [Example 9, [4-(3,5-dimethoxyphenyl)piperazin-1-yl](5-methoxy-1-phenyl-1H-indol-2-yl)methanone] yielded a melting point of 165 °C. The same molecule had an IC50 against Tubulin of 1.2 µM.
